From article PMC7845594, “Novel Immune Modulators Enhance Caenorhabditis elegans Resistance to Multiple Pathogens” (mSphere, 2021)
“And” between values parts separate entries of the source, which are not always exact repeats. Equal entries are not always repeated. “Also recorded” adds a separate entry of the source.

How the values were obtained:
[1] = tested on: glp-4(bn2) worms exposed to methicillin-resistant S. aureus strain MRSA131; assay: S. aureus infection assay (liquid); assay type: in vivo, Caenorhabditis elegans; conditions: for S. aureus EC: glp-4(bn2) worms, 96 h, ± 95% confidence interval
Protocol: Enterococcus faecalis and Staphylococcus aureus are Gram-positive bacterial species frequently responsible for nosocomial infections ([24], [25]). These bacterial species readily infect C. elegans and liquid-based pathogenesis models have been developed for each ([26][–][28]). Sterile, young adult glp-4(bn2) worms were incubated with either E. faecalis or S. aureus and various concentrations of the five compounds. […] Importantly, P. aeruginosa, E. faecalis, and S. aureus use very different mechanisms to kill C. elegans (pyoverdine-mediated mitochondrial damage, gelatinase-mediated damage to the colonized intestine, and multi-toxin-mediated intestinal effacement and damage, respectively) ([29][–][33]). The ability of these compounds to rescue against multiple pathogens that utilize a diverse set of virulence factors and mechanisms of pathogenesis further supports the idea that at least a portion of these compounds’ activity is mediated by stimulating innate immunity.
FIG 2 A subset of LK molecules rescue against E. faecalis and S. aureus. […] Compounds were serially diluted 2-fold, and young adult glp-4(bn2) worms were incubated with the pathogen for 80 h (E. faecalis) or 96 h (S. aureus). The concentrations shown are based on the mean value for at least three replicates. (B and C) Percentages of dead C. elegans after exposure to E. faecalis (B) or S. aureus (C). A representative biological replicate is shown. Each condition included at least six wells per replicate, each well contained approximately 20 worms. Three biological replicates were performed. *, P < 0.05; **, P < 0.01; ***, P < 0.001. P values were calculated using Student’s t test. Error bars represent the standard error of the mean.
The S. aureus killing assay was performed as previously described with some changes ([26]). A single colony was used to inoculate a 5-ml aerobic culture of TSB. The following day, 100 µl of this culture was used to inoculate a second 10 ml of TSB culture wrapped with parafilm. Then, 384-well plates were made containing 10% TSB, and S. aureus from the second culture was resuspended in S Basal medium to a final OD of 0.04. Compounds were then serially diluted in a DMSO-S Basal solution to achieve the desired concentration in the wells with a 1% DMSO final concentration for all compounds. After 5 days, the worms were transferred to new plates using a 0.05% Tween solution to prevent S. aureus biofilm background fluorescence from obscuring dead worms. Subsequent washing, staining, imaging, and image analysis were performed identically to Pseudomonas liquid killing. EC values were defined as the minimum concentration that provided statistically significant rescue. At least three biological replicates were performed.

CCRF-CEM = conditions: cited from earlier work
MOLT-4 = conditions: cited from earlier work
RWPE-1 cells = assay: MTT cell viability assay; conditions: RWPE-1, 10, 50, or 100 µM, 24 h; cell death greater than 30% = toxicity
Protocol: (B) 1.5 × 10^4 RWPE-1 immortalized prostate cells were seeded into each well of a 96-well plate. […] The viability was normalized to a DMSO solvent control. Six wells were used per condition, and an average of three biological replicates is shown.
We also tested compound toxicity in RWPE-1 cells, a well-established, noncancerous, immortalized prostate epithelial cell line available in the lab. Cells were seeded in 96-well plates and allowed to attach before media containing various concentrations of one of the compounds (or DMSO as a control) were added. […] Cell death greater than 30% was considered evidence of toxicity (Fig. 3B).
Then, 100 µl of DMSO was added, and the absorbance at 590 nm measured. MTT assays were performed in triplicate.

C. elegans transcriptome = assay: Gene ontology enrichment (DAVID) of up-/downregulated genes; design: species or system Caenorhabditis elegans; conditions: upregulated genes, 100 µM, 8 h
Protocol: To gain additional insight into the effect of LK molecules on C. elegans, young-adult, wild-type worms were treated with each drug at 100 µM for 8 h in the absence of pathogen. RNA was collected, and transcriptome profiling was performed.
Supplementary file : TABLE S4 Enriched gene ontology categories. […] Redundant gene ontology categories were removed. Download Table S4, XLSX file, 0.02 MB.
Transcriptome profiling was performed on ∼6,000 wild-type, young adult worms incubated with either LK molecules or DMSO for 8 h. RNA isolation was performed using TRIzol extraction, followed by cleanup using RNeasy columns according to the manufacturer’s protocol. Each condition was analyzed in triplicate. Microarray data have been deposited in the GEO database, accession number GSE137516. […] Clustering and generation of the heat map was performed using Cluster 3.0 ([98]) and Treeview ([99]), respectively. Fold change of genes were normalized to average fold change of that gene over all clustered conditions. Genes and conditions were clustered using Euclidean distance and average linkages. […] Microarray data for non-LK molecules were collected from GEO omnibus. WormEXP was used as a secondary method for confirming statistical significance of potential pathways stimulated by each of the LK molecules ([100]). Gene ontologies were generated using DAVID ([101], [102]).

PMK-1/p38 MAPK pathway = assay: irg-5p::GFP reporter; assay type: in vivo, Caenorhabditis elegans; conditions: 25, 50, or 100 μM, 24 h, no pathogen
Excerpt: To test activation of these pathways, worms carrying GFP-based reporters for the SKN-1/Nrf, PMK-1/p38 MAPK, and DAF-16/FOXO pathways (gst-4p::GFP, irg-5p::GFP, and DAF-16::GFP, respectively) were exposed to each compound in S Basal medium in the absence of the pathogen.
FIG 4 A subset of LK molecules activates reporters for the SKN-1/Nrf2 or PMK-1/p38 MAPK pathways. […] Also present are DMSO and ethanol negative controls for LK compounds and juglone, respectively. The fluorescence intensity was normalized to that of DMSO. (B) Worms carrying an irg-5p::GFP reporter for PMK-1/p38 MAPK activity were incubated at 25, 50, or 100 μM in 1% DMSO. Positive and negative controls consisted of 100 μM RPW-24 in 1% DMSO and 1% DMSO alone. Fluorescence was measured at 24 h. […] P values were calculated using Student’s t test. […]
Worms were washed three times prior to incubation with compounds or DMSO control and diluted in S Basal medium supplemented with E. coli OP50 (OD600 = 0.08) as a food source. The fluorescence fold increase for gst-4p::GPF was taken as the fluorescence of each well and was normalized to the well’s fluorescence at 0 h. irg-5p::GFP, hsp-16.1p::GFP, rpt-6p::GFP, and hsp-4::GFP fluorescence was quantified as the fluorescence/worm area. […] For quantification of nuclear localization of GFP fusion reporters, worms were scored as either localization positive or localization negative. […]

[2] = tested on: GroEL and GroES families of bacterial chaperones; design: method as in PMID 27184767, PMID 24418775; conditions: cited from earlier work

SMILES | S. aureus EC [1] | LD50 (CCRF-CEM) [µM] | LD50 (MOLT-4) [µM] | Toxicity in mammalian cells (MTT viability) (RWPE-1 cells) | Need of MDT-15 for rescue (mdt-15(RNAi)) ([1]; S. aureus, 32 µM) | Fold Enrichment, GO term Cytochrome P450 (C. elegans transcriptome) | irg-5p::GFP fluorescence (PMK-1/p38 MAPK activation) (PMK-1/p38 MAPK pathway) | Inhibition of GroEL and GroES chaperones [2]
COC(=O)/C=C/C(=O)Nc1ccccc1 [LK32] | > 64 µM | ~40 | ~40 | poorly tolerated; also recorded: substantial toxicity |  |  |  | 
O=c1cc(CNc2ccc(Br)cc2)nc2sccn12 [LK56] | 56 µM and 56 ± 12.8 µM |  |  |  | required | 12.9 | modest increase | 
CNC(=O)Oc1c(Br)cc2sc(=O)oc2c1Br [LK34] | 42.7 µM and 42.7 ± 11.4 µM |  |  | some toxicity |  |  |  | potent inhibitor
CN(C)/N=N/c1ccc(-c2cn(Cc3ccccc3)cn2)cc1 [LK38] | > 64 µM |  |  |  |  | 12.2 | modest increase | 
CCN(CC)/N=N/c1ccc(C(=O)O)cc1 [LK35] | > 64 µM |  |  |  |  |  |  | 
